In patent US10426773B2, “Systems pharmacology for treating ocular disorders” (Case Western Reserve Univeristy, priority 2011, dated 2019):
“Also recorded” adds a separate entry of the source.

Tests used:
[1] = test system: ROS generation in photoreceptors of Abca4−/−Rdh8−/− mice; test: In vivo detection of ROS (DHE probe) in retinas of light-exposed Abca4−/−Rdh8−/− mice; set-up: species or system mouse; conditions: Example 3; DOX 10 mg/kg, GUB 2.0 mg/kg, SQ 0.5 mg/kg ip 30 min prior to light
Protocol: The ROS probe, DHE, at a dose of 20 mg/kg body weight was administered to Abca4^−/−Rdh8^−/− mice via intraperitoneal injection 30 min prior to light exposure. Eye cups obtained after removing the cornea, lens and vitreous body from enucleated eye globes 3 h post light illumination were fixed in 4% paraformaldehyde. Cryosections were prepared from fixed eye cups and cut at 12 am thickness for microscopic assessment of ROS signal fluorescence in the retina.
The ROS probe, DHE, at a dose of 20 mg/kg body weight in 25 μl of DMSO, was administered to Abca4^−/−Rdh8^−/− mice via intraperitoneal injection 1 h prior to light exposure. Eye cups obtained after removing the cornea, lens, and vitreous body from enucleated eye globes 3 h post light illumination were fixed in 4% paraformaldehyde. Cryosections were prepared from fixed eye cups and cut at 12-am thickness for microscopic assessment of ROS fluorescence in the retina with ImageJ software (National Institutes of Health).

[2] = test system: BALB/c mice; test: Light-induced retinal degeneration in BALB/c mice, SLO autofluorescence imaging; assay type: in vivo, mouse; conditions: DOX 10, GUB 2.0, SQ 0.5 mg/kg, 7 days after light
Protocol: SLO (Heidelberg Engineering) was carried out for in vivo whole fundus imaging of mouse retinas. […] Numbers of autofluorescent spots were counted and subjected to statistical analyses as described below.
These drugs were administered to 4-week-old BALB/c mice by intraperitoneal injection 30 min prior to white light exposure at 10,000 lux for 1 h. Retinal morphology was assessed 7 days after light exposure by OCT imaging and histological examination.

[3] = Quantification of selected drugs in mouse serum and eye by LC-MS; assay type: in vivo, C57BL/6J WT mice
Protocol: C57BL/6J WT mice at 6 weeks of age (Jackson Laboratory) were treated with DOX, GUB, or SQ at a single dose of 10, 2, and 0.5 mg per kilogram, respectively. The compound was dissolved in 50% DMSO in PBS (137 mM NaCl, 2.7 mM KCl, 0.67 mM […]). Next, to precipitate excess proteins, 0.3 ml of methanol was added to both the eye homogenate and 0.1 ml of serum. Samples were vortexed for 30 s followed by centrifugation for 15 min at 16,000 g. Clear supernatants were collected and used directly for LC-MS analysis. 2HPO4/KH2PO4, pH 7.4) and administrated by intraperitoneal injection. Thirty minutes later the mice were anesthetized. Blood samples were collected using the technique of cardiac puncture and subsequently centrifuged (5 min, 16,000 g) to collect serum. Prior to harvesting eyes, mice were intracardially perfused with PBS to minimalize blood contamination. Eye balls were immediately homogenized in 0.1 ml of PBS. The homogenate and serum samples were spiked with 100 pmols of internal standard (IS) (parazosin—2-[4-(2-furoyl)piperazin-1-yl]-6,7-dimethoxyquinazolin-4-amine (Sigma Aldrich) or clenbuterol—(RS)-1-(4-Amino-3,5-dichlorophenyl)-2-(tert-butylamino)ethanol (Sigma Aldrich)) for DOX, GUB or SQ quantification, respectively.
Mass spectrometry (MS) based detection and quantification of DOX, GUB, and SQ was performed with a L×Q linear ion trap mass spectrometer (Thermo Scientific) equipped with an electrospray ionization (ESI) interface and coupled to Agilent 1100 HPLC (Agilent Technologies). Separation of drugs and the internal standards was achieved on a reverse phase C18 Phenomenex HPLC column (250×4.60 mm; 5 μm) by a linear gradient of to 100% acetonitrile in water within 15 min at flow rate of 0.5 ml/min. All solvents contained 0.1% formic acid (v/v). The HPLC effluent was sprayed into the MS via an ESI probe operated in the positive ionization mode. Parameters of ionization and detection were tuned with synthetic standards for the drugs to achieve the highest possible sensitivity. Dox and parazosin (internal standard) were detected by selected reaction monitoring (SRM) using m/z 452.2→344.2 and 384.2→247.1 transitions whereas GUB, SQ and their corresponding IS, clenbuterol, was by fragmentation at m/z 231.1→214.0, 206.1→136.0, and 277.1→259.1, respectively. The elution times for DOX, GUB, and SQ were ˜12.8, 12.3, and 10.8 min, respectively. Both internal standards eluted at 12.0 min (FIG. 34). Calibration curves were calculated based on the linear relationship between ratios of SRM ion intensity peak area corresponding to the selected drug and the IS vs. molar ratios of the compounds in the range of 20-500 pmol (FIG. 34H).

[4] = test system: Abca4−/−Rdh8−/− mice; test: Bright light-induced retinal degeneration in Abca4−/−Rdh8−/− mice, ERG retinal function; conditions: pretreatment before light 10,000 lux 30 min; ERG 7 days to 2 weeks after; listed as DOX

SMILES: COc1cc2nc(N3CCN(C(=O)C4COc5ccccc5O4)CC3)nc(N)c2cc1OC.CS(=O)(=O)O (stereo not drawn) [Doxazosin]
- ROS generation in photoreceptors (DHE signal) [1]: decreased
- autofluorescent spots by SLO [2]: prevented
- Eye ± SD ([3]; 30 min after a single ip dose: DOX 10, GUB 2, SQ 0.5 mg per kilogram, mice perfused with PBS): 11.0 ± 1.7 pmol/eye
- concentration at 30 min ([3]; C57BL/6J, mouse, serum, intraperitoneal, 30 min after a single ip dose: DOX 10, GUB 2, SQ 0.5 mg per kilogram, read-out: Serum ± SD): 465 ± 128 nM
- amount in eye compared with level in 0.1 mL of serum ([3]; eye volume taken as about 0.1 mL): 5 times lower
- retinal function by ERG (a-wave and b-wave amplitudes) [4]: substantial preservation of the scotopic ERG response; also recorded: substantial preservation of this response
